Data as given in PubChem BioAssay (NCI).
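Test compounds were applied to cells in 96-well plates for 48 hours at 5 doses. At the GI50, growth is halved. At the TGI there is no net growth.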

Tested on: HOP-18 NSCLC
Assay: NCI-60 cell line screen, 48 h

Row | SMILES | TGI [µM] | GI50 [µM]
1 | C=CCc1cc(OC)c2c(c1)C(O)CC(c1ccc(OC)c(OC)c1)O2 (configuration not stated) | > 100 | –
2 | CC(C)=CCCc1c(C)ccc2c1C(=O)C(=O)C(C(C)C)=C2 | 8.12 | –
3 | NS(=O)(=O)c1ccccc1C(=O)N/N=C(\c1nc2ccc([N+](=O)[O-])cc2[nH]c1=O)C(O)c1ccc([N+](=O)[O-])cc1 (configuration not stated) | > 100 | –
4 | N#CC(C#N)=c1ccc(=C2NCC3CCCN23)cc1 (configuration not stated) | > 100 | –
5 | CSc1ccc(/C=C2\CN(C)C/C(=C\c3ccc(SC)cc3)C2=O)cc1 | > 100 | –
6 | Cc1nc2c(nc1C)C(=O)c1ccccc1C2=O | 9.53 | –
7 | COC(=O)[C@@]12C3=NO[C@]1(C(=O)OC)C(O[Si](C)(C)C(C)(C)C)[C@H]1OC(C)(C)O[C@H]1[C@@H]2C(OCc1ccccc1)CC3 (some centres not stated) | > 100 | –
8 | CN(CC(=O)O)S(=O)(=O)c1ccc2ccccc2c1 | > 100 | –
9 | CC1=C(C(=O)Nc2ccccc2C)C(c2ccco2)C(C(=O)Nc2ccccc2C)=C(C)N1C | > 100 | –
10 | CC(=O)C(CN(C(C)C)C(C)C)C(c1ccccc1)c1c(O)c2ccccc2oc1=O (configuration not stated) | > 100 | –
11 | COc1ccc2c(c1)C1(C=N2)CCN(C(C)=O)CC1 | > 100 | –
12 | NC(CCc1nc(-c2ccc(Cl)cc2)cs1)C(=O)O (configuration not stated) | > 100 | –
13 | CCOC(=O)C1=C(C)CC2C(=O)OC(=O)C2C1(C)C (configuration not stated) | > 100 | –
14 | O=C1c2ccccc2C(=O)c2sc(Nc3cccc(Cl)c3)nc21 | 3.48 | –
15 | CCOC(=O)C(Sc1ccccc1)c1c(OC)cc(=O)oc1/C=[N+](/[O-])c1ccc(N(C)C)cc1 (configuration not stated) | 61.6 | –
16 | COc1ccc2nc3cc(Cl)ccc3c(Sc3ccccc3[N+](=O)[O-])c2c1 | > 100 | –
17 | O=C(O)C(Cc1ccccc1)N1C(=O)N/C(=C\c2ccc(F)cc2)C1=O (configuration not stated) | > 100 | –
18 | C/C(CCn1[nH]c(=O)ccc1=O)=N\O | > 100 | –
19 | CC(=O)N1[C@H](C(=O)O)CS[C@H]1c1ccncc1 | > 100 | –
20 | CC1(C)COC(c2ccc(C(F)(F)F)cc2C(O)c2ccc3ccccc3c2)=N1 (configuration not stated) | > 100 | > 100
21 | COc1ccc(NC(=O)c2cc(OC)cc(OC)c2)cc1 | > 100 | –
22 | COc1ccc(/C=C\c2cc(OC)c3c(c2)OCO3)c(O)c1O | 46.4 | –
23 | CC(=O)OC1COC(n2c(=S)n(-c3ccc(C)cc3)c(=O)c3ccccc32)C(OC(C)=O)C1OC(C)=O (configuration not stated) | > 100 | –
24 | COc1cccc(NC(=O)CC(=O)n2nc(C)c(N=Nc3ccccc3)c2C)c1 | 71.4 | –

Tested on: RXF-631 renal
Assay: NCI-60 cell line screen, 48 h

Row | SMILES | TGI [µM]
25 | CCOC(=O)COc1cccc2c1C(=O)CCO2 | > 100
26 | Cc1nc2c(nc1C)C(=O)c1ccccc1C2=O | 46.1
27 | Nc1ccc(C(=O)N/C(=C\c2ccc3c(c2)OCO3)c2nc3[nH]c(=S)[nH]c(=O)c3[nH]2)cc1 | > 100
28 | O=C(N/C(=C\c1cc(Cl)ccc1Cl)c1nc2[nH]c(=S)[nH]c(=O)c2[nH]1)c1ccccc1 | > 82.7
29 | CN(CC(=O)O)S(=O)(=O)c1ccc2ccccc2c1 | > 100
30 | CC1=C(C(=O)Nc2ccccc2C)C(c2ccco2)C(C(=O)Nc2ccccc2C)=C(C)N1C | > 100
31 | O=[S@@]1Nc2ccc(Br)cc2S1 | > 100
32 | CC(=O)C(CN(C(C)C)C(C)C)C(c1ccccc1)c1c(O)c2ccccc2oc1=O (configuration not stated) | > 100
33 | COc1ccc2c(c1)C1(C=N2)CCN(C(C)=O)CC1 | > 100
34 | NC(CCc1nc(-c2ccc(Cl)cc2)cs1)C(=O)O (configuration not stated) | > 100
35 | O=C1NC2(CCCCC2)C2CCCCC(O)C12 (configuration not stated) | > 100
36 | COc1ccc2nc3cc(Cl)ccc3c(Sc3ccccc3[N+](=O)[O-])c2c1 | > 100
37 | C/C(CCn1[nH]c(=O)ccc1=O)=N\O | > 100
38 | CC1(C)COC(c2ccc(C(F)(F)F)cc2C(O)c2ccc3ccccc3c2)=N1 (configuration not stated) | > 100
39 | CC(=O)OC1COC(n2c(=S)n(-c3ccc(C)cc3)c(=O)c3ccccc32)C(OC(C)=O)C1OC(C)=O (configuration not stated) | > 100
40 | COc1cccc(NC(=O)CC(=O)n2nc(C)c(N=Nc3ccccc3)c2C)c1 | > 100
41 | O=C1C2=C(SCCS2)C(=O)c2ccccc21 | 3.28

Tested on: LXFL 529 NSCLC
Assay: NCI-60 cell line screen, 48 h

Row | SMILES | TGI [µM] | GI50 [µM]
42 | C=CCc1cc(OC)c2c(c1)C(O)CC(c1ccc(OC)c(OC)c1)O2 (configuration not stated) | > 100 | –
43 | CC(C)=CCCc1c(C)ccc2c1C(=O)C(=O)C(C(C)C)=C2 | 6.65 | –
44 | NS(=O)(=O)c1ccccc1C(=O)N/N=C(\c1nc2ccc([N+](=O)[O-])cc2[nH]c1=O)C(O)c1ccc([N+](=O)[O-])cc1 (configuration not stated) | > 100 | –
45 | N#CC(C#N)=c1ccc(=C2NCC3CCCN23)cc1 (configuration not stated) | > 100 | –
46 | CCOC(=O)COc1cccc2c1C(=O)CCO2 | > 100 | –
47 | CSc1ccc(/C=C2\CN(C)C/C(=C\c3ccc(SC)cc3)C2=O)cc1 | 35.7 | –
48 | Cc1nc2c(nc1C)C(=O)c1ccccc1C2=O | > 58.3 | –
49 | Nc1ccc(C(=O)N/C(=C\c2ccc3c(c2)OCO3)c2nc3[nH]c(=S)[nH]c(=O)c3[nH]2)cc1 | > 100 | –
50 | COC(=O)[C@@]12C3=NO[C@]1(C(=O)OC)C(O[Si](C)(C)C(C)(C)C)[C@H]1OC(C)(C)O[C@H]1[C@@H]2C(OCc1ccccc1)CC3 (some centres not stated) | > 100 | –
51 | O=C(N/C(=C\c1cc(Cl)ccc1Cl)c1nc2[nH]c(=S)[nH]c(=O)c2[nH]1)c1ccccc1 | 45.2 | –
52 | CN(CC(=O)O)S(=O)(=O)c1ccc2ccccc2c1 | > 100 | –
53 | CCN(CC)CC(C(=O)Nc1c(C)cccc1C)/C(C)=N\NC(=O)C[N+](C)(C)C (configuration not stated) | > 100 | –
54 | CC1=C(C(=O)Nc2ccccc2C)C(c2ccco2)C(C(=O)Nc2ccccc2C)=C(C)N1C | > 100 | –
55 | O=[S@@]1Nc2ccc(Br)cc2S1 | > 100 | –
56 | CC(=O)C(CN(C(C)C)C(C)C)C(c1ccccc1)c1c(O)c2ccccc2oc1=O (configuration not stated) | > 100 | –
57 | COc1ccc2c(c1)C1(C=N2)CCN(C(C)=O)CC1 | > 100 | –
58 | NC(CCc1nc(-c2ccc(Cl)cc2)cs1)C(=O)O (configuration not stated) | > 100 | –
59 | O=C1NC2(CCCCC2)C2CCCCC(O)C12 (configuration not stated) | > 100 | –

Row | SMILES | TGI [µM] | GI50 [µM]
60 | CCOC(=O)C1=C(C)CC2C(=O)OC(=O)C2C1(C)C (configuration not stated) | > 100 | –
61 | O=C1c2ccccc2C(=O)c2sc(Nc3cccc(Cl)c3)nc21 | 2.86 | –
62 | CCOC(=O)C(Sc1ccccc1)c1c(OC)cc(=O)oc1/C=[N+](/[O-])c1ccc(N(C)C)cc1 (configuration not stated) | 27.2 | –
63 | COc1ccc2nc3cc(Cl)ccc3c(Sc3ccccc3[N+](=O)[O-])c2c1 | > 100 | –
64 | O=C(O)C(Cc1ccccc1)N1C(=O)N/C(=C\c2ccc(F)cc2)C1=O (configuration not stated) | > 100 | –
65 | C/C(CCn1[nH]c(=O)ccc1=O)=N\O | > 100 | –
66 | COc1ccccc1NC(=O)CC(=O)n1nc(C)c(N=Nc2ccccc2C(=O)O)c1C | > 100 | –
67 | CC(=O)N1[C@H](C(=O)O)CS[C@H]1c1ccncc1 | > 100 | –
68 | CC1(C)COC(c2ccc(C(F)(F)F)cc2C(O)c2ccc3ccccc3c2)=N1 (configuration not stated) | > 100 | > 100
69 | COc1ccc(NC(=O)c2cc(OC)cc(OC)c2)cc1 | > 100 | –
70 | CC1(C)OC(=O)C(=Cc2ccc(O)cc2)C(=O)O1 | > 100 | –
71 | COc1ccc(/C=C\c2cc(OC)c3c(c2)OCO3)c(O)c1O | 3.74 | –
72 | CC(=O)OC1COC(n2c(=S)n(-c3ccc(C)cc3)c(=O)c3ccccc32)C(OC(C)=O)C1OC(C)=O (configuration not stated) | > 100 | –
73 | COc1cccc(NC(=O)CC(=O)n2nc(C)c(N=Nc3ccccc3)c2C)c1 | > 100 | –
74 | O=C(O)CCSC(=O)Nc1cccc(F)c1 | > 100 | –
75 | CCNC1C2(CCCCC2)NC(=O)C12CCCCC2 (configuration not stated) | > 100 | –
76 | O=C1C2=C(SCCS2)C(=O)c2ccccc21 | 3.02 | –

Tested on: DMS 114 small cell lung
Assay: NCI-60 cell line screen, 48 h

Row | SMILES | TGI [µM] | GI50 [µM]
77 | C=CCc1cc(OC)c2c(c1)C(O)CC(c1ccc(OC)c(OC)c1)O2 (configuration not stated) | > 100 | –
78 | CC(C)=CCCc1c(C)ccc2c1C(=O)C(=O)C(C(C)C)=C2 | 9.36 | –
79 | N#CC(C#N)=c1ccc(=C2NCC3CCCN23)cc1 (configuration not stated) | > 100 | –
80 | CCOC(=O)COc1cccc2c1C(=O)CCO2 | > 100 | –
81 | CSc1ccc(/C=C2\CN(C)C/C(=C\c3ccc(SC)cc3)C2=O)cc1 | > 100 | –
82 | Cc1nc2c(nc1C)C(=O)c1ccccc1C2=O | > 46 | –
83 | COC(=O)[C@@]12C3=NO[C@]1(C(=O)OC)C(O[Si](C)(C)C(C)(C)C)[C@H]1OC(C)(C)O[C@H]1[C@@H]2C(OCc1ccccc1)CC3 (some centres not stated) | > 100 | –
84 | O=C(N/C(=C\c1cc(Cl)ccc1Cl)c1nc2[nH]c(=S)[nH]c(=O)c2[nH]1)c1ccccc1 | > 82.5 | –
85 | CCN(CC)CC(C(=O)Nc1c(C)cccc1C)/C(C)=N\NC(=O)C[N+](C)(C)C (configuration not stated) | > 100 | –
86 | CC1=C(C(=O)Nc2ccccc2C)C(c2ccco2)C(C(=O)Nc2ccccc2C)=C(C)N1C | > 100 | –
87 | CC(=O)OC(C)C(=O)C1c2cccc(O)c2C(=O)c2c(O)cc(C)cc21 (configuration not stated) | 0.497 | –
88 | CC(=O)C(CN(C(C)C)C(C)C)C(c1ccccc1)c1c(O)c2ccccc2oc1=O (configuration not stated) | > 100 | –
89 | COc1ccc2c(c1)C1(C=N2)CCN(C(C)=O)CC1 | > 100 | –
90 | O=C1NC2(CCCCC2)C2CCCCC(O)C12 (configuration not stated) | > 100 | –
91 | COc1ccc(-n2/c(=N/C(=S)N(C)C)ss/c2=N\C(=S)N(C)C)cc1 | > 100 | –
92 | CCOC(=O)C1=C(C)CC2C(=O)OC(=O)C2C1(C)C (configuration not stated) | > 100 | –

Row | SMILES | TGI [µM] | GI50 [µM]
93 | O=C1c2ccccc2C(=O)c2sc(Nc3cccc(Cl)c3)nc21 | 2.97 | –
94 | CCOC(=O)C(Sc1ccccc1)c1c(OC)cc(=O)oc1/C=[N+](/[O-])c1ccc(N(C)C)cc1 (configuration not stated) | 42.9 | –
95 | COc1ccc2nc3cc(Cl)ccc3c(Sc3ccccc3[N+](=O)[O-])c2c1 | > 100 | –
96 | C/C(CCn1[nH]c(=O)ccc1=O)=N\O | > 100 | –
97 | COc1ccccc1NC(=O)CC(=O)n1nc(C)c(N=Nc2ccccc2C(=O)O)c1C | > 100 | –
98 | CC(=O)N1[C@H](C(=O)O)CS[C@H]1c1ccncc1 | > 100 | –
99 | CC1(C)COC(c2ccc(C(F)(F)F)cc2C(O)c2ccc3ccccc3c2)=N1 (configuration not stated) | > 100 | > 100
100 | COc1ccc(NC(=O)c2cc(OC)cc(OC)c2)cc1 | > 100 | –
101 | CC1(C)OC(=O)C(=Cc2ccc(O)cc2)C(=O)O1 | > 100 | –
102 | COc1ccc(/C=C\c2cc(OC)c3c(c2)OCO3)c(O)c1O | 8.81 | –
103 | CC(=O)OC1COC(n2c(=S)n(-c3ccc(C)cc3)c(=O)c3ccccc32)C(OC(C)=O)C1OC(C)=O (configuration not stated) | > 100 | –
104 | COc1cccc(NC(=O)CC(=O)n2nc(C)c(N=Nc3ccccc3)c2C)c1 | > 100 | –
105 | O=C(O)CCSC(=O)Nc1cccc(F)c1 | > 100 | –
106 | CCNC1C2(CCCCC2)NC(=O)C12CCCCC2 (configuration not stated) | > 100 | –
107 | O=C1C2=C(SCCS2)C(=O)c2ccccc21 | 2.09 | –

Tested on: MDA-MB-231 breast
Assay: NCI-60 cell line screen, 48 h

Row | SMILES | TGI [µM]
108 | Cc1nc2c(nc1C)C(=O)c1ccccc1C2=O | 35.6
109 | O[C@H]1[C@H]2c3cc4c(cc3CN3CCC(=C[C@@H]1O)[C@H]23)OCO4 | 10.2
